Measurements from ChEMBL document CHEMBL1201862, “PubChem BioAssay data set” (2004).
“And” between values parts separate entries of the source, which are not always exact repeats. Equal entries are not always repeated.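 Step 1: Grow cells in 96-well plates. Step 2: Expose to compound for 48 hours at 5 concentrations. Step 3: Interpolate endpoints linearly; if unreached, use highest concentration. At the GI50, growth is halved.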 The source made the active and inactive calls. No stated cut-off is given here; in the data, active = GI50 up to about 1.1 µM and inactive = higher.

Experiments:
Assay in all cases: inhibition of tumour cell growth, NCI panel, 48 h
786-0 = test system: 786-0
A498 = test system: A498
ACHN = test system: ACHN
EKVX = test system: EKVX
KM12 = test system: KM12
LOX IMVI = test system: LOX IMVI
NCI-H226 = test system: NCI-H226
NCI-H460 = test system: NCI-H460
NCI-H522 = test system: NCI-H522
OVCAR-3 = test system: OVCAR-3
OVCAR-8 = test system: OVCAR-8
SF-539 = test system: SF-539
SR = test system: SR
SW-620 = test system: SW-620
U-251 = test system: U-251
CAKI-1 = test system: CAKI-1
IGROV-1 = test system: IGROV-1
MOLT-4 = test system: MOLT-4
SF-295 = test system: SF-295
SK-MEL-5 = test system: SK-MEL-5

| SMILES | GI50 (786-0) | GI50 (A498) | GI50 (ACHN) | GI50 (EKVX) | GI50 (KM12) | GI50 (LOX IMVI) | GI50 (NCI-H226) | GI50 (NCI-H460) | GI50 (NCI-H522) | GI50 (OVCAR-3) | GI50 (OVCAR-8) | GI50 (SF-539) | GI50 (SR) | GI50 (SW-620) | GI50 (U-251) | GI50 (CAKI-1) | GI50 (IGROV-1) | GI50 (MOLT-4) | GI50 (SF-295) | GI50 (SK-MEL-5) |
| --- | --- | --- | --- | --- | --- | --- | --- | --- | --- | --- | --- | --- | --- | --- | --- | --- | --- | --- | --- | --- |
| OC(CBr)C(O)C(O)C(O)CBr (centres undefined) | 13.7 µM (inactive) | > 61.9 µM (inactive) | 8.09 µM (inactive) | > 75.7 µM (inactive) | > 100 µM (inactive) and > 60 µM (inactive) | 51.6 µM (inactive) and 40.9 µM (inactive) | > 100 µM (inactive) and > 74.1 µM (inactive) | 8.3 µM (inactive) and 10.7 µM (inactive) | > 67.1 µM (inactive) and > 48.6 µM (inactive) | > 55.1 µM (inactive) | > 100 µM (inactive) and 59.4 µM (inactive) | 46.7 µM (inactive) and 49.8 µM (inactive) | > 100 µM (inactive) | > 87.7 µM (inactive) | > 43.2 µM (inactive) and > 63.8 µM (inactive) | – | – | – | – | – |
| COc1ccc(N2C(=O)C3c4[nH]c5c(C)cccc5c4C4CCC(C(C)C)CC4C3C2=O)cc1 (centres undefined) | 4.38 µM (inactive) | 14 µM (inactive) | 13.7 µM (inactive) | 16.7 µM (inactive) | 6.75 µM (inactive) | 3.59 µM (inactive) | 13.9 µM (inactive) | 7.94 µM (inactive) | 4.51 µM (inactive) | 13.9 µM (inactive) | 12.1 µM (inactive) | – | 4.68 µM (inactive) | 11 µM (inactive) | 10 µM (inactive) | 15 µM (inactive) | 8.99 µM (inactive) | 2.12 µM (inactive) | 14.7 µM (inactive) | 12 µM (inactive) |
| C=COC(=O)N1C2CCCC(Cl)(C(C)=O)C1CC2 (centres undefined) | > 100 µM (inactive) | > 100 µM (inactive) | > 100 µM (inactive) | > 100 µM (inactive) | > 100 µM (inactive) | > 100 µM (inactive) | > 100 µM (inactive) | > 100 µM (inactive) | > 100 µM (inactive) | > 100 µM (inactive) | > 100 µM (inactive) | – | > 100 µM (inactive) | > 100 µM (inactive) | > 100 µM (inactive) | > 100 µM (inactive) | > 100 µM (inactive) | > 100 µM (inactive) | > 100 µM (inactive) | > 100 µM (inactive) |
| CCC(C)[C@H]1C(=O)N=C(N)N1C(=O)OCc1ccccc1 (some centres undefined) | > 100 µM (inactive) | > 100 µM (inactive) | > 100 µM (inactive) | > 100 µM (inactive) | > 100 µM (inactive) | > 100 µM (inactive) | > 100 µM (inactive) | > 100 µM (inactive) | > 100 µM (inactive) | > 100 µM (inactive) | > 100 µM (inactive) | – | > 100 µM (inactive) | > 100 µM (inactive) | > 100 µM (inactive) | > 100 µM (inactive) | > 100 µM (inactive) | > 100 µM (inactive) | > 100 µM (inactive) | > 100 µM (inactive) |
| N=C(N)SCCc1ccncc1 | > 100 µM (inactive) | > 100 µM (inactive) | > 100 µM (inactive) | > 100 µM (inactive) | > 100 µM (inactive) | > 100 µM (inactive) | > 100 µM (inactive) | > 100 µM (inactive) | – | > 100 µM (inactive) | > 100 µM (inactive) | > 100 µM (inactive) | > 100 µM (inactive) | > 100 µM (inactive) | > 100 µM (inactive) | > 100 µM (inactive) | > 100 µM (inactive) | > 100 µM (inactive) | > 100 µM (inactive) | > 100 µM (inactive) |
| Cc1nn(C(=O)c2ccccc2O)c2c1C(c1ccccc1O)SC(=N)N2 (centres undefined) | 4.53 µM (inactive) | – | 3.44 µM (inactive) | 9.27 µM (inactive) | 4.65 µM (inactive) | 6.1 µM (inactive) | 1.49 µM (inactive) | 4.36 µM (inactive) | 3.47 µM (inactive) | 2.54 µM (inactive) | 2.82 µM (inactive) | 0.421 µM (active) | 1.95 µM (inactive) | 6.11 µM (inactive) | 4.39 µM (inactive) | 8.07 µM (inactive) | 1.01 µM (active) | 2.67 µM (inactive) | 7.53 µM (inactive) | 2.46 µM (inactive) |
| C/C(Cl)=N\OC(=O)Nc1ccccc1C(F)(F)F | 17.9 µM (inactive) | > 100 µM (inactive) | 18.1 µM (inactive) | 19.9 µM (inactive) | > 100 µM (inactive) | 14.9 µM (inactive) | – | > 100 µM (inactive) | – | 15.8 µM (inactive) | 38.9 µM (inactive) | > 100 µM (inactive) | 17.1 µM (inactive) | 17.9 µM (inactive) | > 100 µM (inactive) | > 100 µM (inactive) | > 100 µM (inactive) | 18.5 µM (inactive) | > 100 µM (inactive) | > 100 µM (inactive) |
| O=C(O)CSC(CC1(c2ccc(Cl)cc2)NC(=O)CS1)c1ccc(Cl)cc1 (centres undefined) | > 100 µM (inactive) | > 100 µM (inactive) | > 100 µM (inactive) | > 100 µM (inactive) | > 100 µM (inactive) | > 100 µM (inactive) | – | 85.5 µM (inactive) | 46.2 µM (inactive) | 45.6 µM (inactive) | > 100 µM (inactive) | > 100 µM (inactive) | > 100 µM (inactive) | > 100 µM (inactive) | 89.7 µM (inactive) | > 100 µM (inactive) | > 100 µM (inactive) | > 100 µM (inactive) | > 100 µM (inactive) | > 100 µM (inactive) |
| COc1ccc(C(C2=C(O)COC2=O)c2cc3c(cc2O)OCO3)cc1OC (centres undefined) | > 100 µM (inactive) | > 100 µM (inactive) | > 100 µM (inactive) | > 100 µM (inactive) | > 100 µM (inactive) | > 100 µM (inactive) | > 100 µM (inactive) | > 100 µM (inactive) | – | > 100 µM (inactive) | > 100 µM (inactive) | > 100 µM (inactive) | > 100 µM (inactive) | > 100 µM (inactive) | – | > 100 µM (inactive) | > 100 µM (inactive) | > 100 µM (inactive) | > 100 µM (inactive) | > 100 µM (inactive) |
| CC(=O)O/N=C/c1c2ccccc2cc2ccccc12 | – | 24.9 µM (inactive) | 23.8 µM (inactive) | 27.5 µM (inactive) | 61.8 µM (inactive) | > 100 µM (inactive) | 46.9 µM (inactive) | 51.8 µM (inactive) | – | > 100 µM (inactive) | 19.1 µM (inactive) | 51.1 µM (inactive) | 28 µM (inactive) | 50.8 µM (inactive) | 45.6 µM (inactive) | 82.4 µM (inactive) | – | > 100 µM (inactive) | 47.4 µM (inactive) | 58.9 µM (inactive) |
| CCOC(=O)CNC(=O)C(C)NC(=O)C(NC(=O)CC(c1ncc[nH]1)c1ncc[nH]1)C(C)CC (centres undefined) | > 100 µM (inactive) | > 100 µM (inactive) | > 100 µM (inactive) | > 100 µM (inactive) | > 100 µM (inactive) | > 100 µM (inactive) | – | > 100 µM (inactive) | > 100 µM (inactive) | > 100 µM (inactive) | > 100 µM (inactive) | > 100 µM (inactive) | > 100 µM (inactive) | > 100 µM (inactive) | > 100 µM (inactive) | > 100 µM (inactive) | > 100 µM (inactive) | > 100 µM (inactive) | > 100 µM (inactive) | – |
| FC(F)(F)c1ccc2c(c1)N(CCCNCCN1CCOCC1)c1ccccc1S2 | – | 17.9 µM (inactive) | 12.3 µM (inactive) | 15 µM (inactive) | 11.6 µM (inactive) | 8.85 µM (inactive) | – | 11.2 µM (inactive) | 14.9 µM (inactive) | 11.4 µM (inactive) | 16.6 µM (inactive) | 4.7 µM (inactive) | 6.32 µM (inactive) | 10.2 µM (inactive) | 11.6 µM (inactive) | – | 15.8 µM (inactive) | 4.74 µM (inactive) | 13.3 µM (inactive) | 3.8 µM (inactive) |
| CCN(CC(=O)O)C(=O)c1cccnc1 | > 100 µM (inactive) | > 100 µM (inactive) | > 100 µM (inactive) | > 100 µM (inactive) | > 100 µM (inactive) | > 100 µM (inactive) | – | > 100 µM (inactive) | > 100 µM (inactive) | > 100 µM (inactive) | > 100 µM (inactive) | – | > 100 µM (inactive) | > 100 µM (inactive) | > 100 µM (inactive) | > 100 µM (inactive) | > 100 µM (inactive) | > 100 µM (inactive) | > 100 µM (inactive) | – |
| O=S(OC12CC3CC(CC(C3)C1)C2)c1cc(Cl)cc(Cl)c1OCc1ccccc1 (centres undefined) | – | > 100 µM (inactive) | > 100 µM (inactive) | > 100 µM (inactive) | > 100 µM (inactive) | > 100 µM (inactive) | – | > 100 µM (inactive) | 19 µM (inactive) | > 100 µM (inactive) | – | > 100 µM (inactive) | > 100 µM (inactive) | – | > 100 µM (inactive) | – | – | > 100 µM (inactive) | – | – |
| O=C(c1ccc2ccccc2c1O)N1CCCCC1 | > 100 µM (inactive) | > 100 µM (inactive) | > 100 µM (inactive) | 61.4 µM (inactive) | > 100 µM (inactive) | 90.4 µM (inactive) | > 100 µM (inactive) | 80.7 µM (inactive) | – | – | 68.2 µM (inactive) | > 100 µM (inactive) | > 10 µM (inactive) | > 100 µM (inactive) | > 100 µM (inactive) | > 100 µM (inactive) | > 100 µM (inactive) | 23.2 µM (inactive) | 92.9 µM (inactive) | 34 µM (inactive) |
